Data set [1] deals with Proteinase-activated receptor 2 (Homo sapiens) (UniProt P55085). In words: Inhibition of PAR2-mediated TNFalpha and SLIGKV-NH2-induced interleukin-8 production in normal human epidermal keratinocytes at 10 uM by ELISA. (In general: In an ELISA, binding on a coated surface is turned into a signal by an enzyme label.)
Data set [2] is described as follows: Cytotoxicity against normal human epidermal keratinocytes at 100 uM after 72 hrs by MTT assay. The format is cell-based. Particulars: keratinocyte.
Data set [3] has as its target Proteinase-activated receptor 2 (Homo sapiens) (UniProt P55085). In words: Inhibition of PAR2-mediated IL1-beta and SLIGKV-NH2-induced interleukin-8 production in normal human epidermal keratinocytes at 10 uM by ELISA.
Data set [4] shares this target. In words: Inhibition of PAR2 gene expression in normal human epidermal keratinocytes at 10 uM after 48 hrs by quantitative RT-PCR.
Data set [5] in a line: Cytotoxicity against normal human epidermal keratinocytes at 10 uM after 72 hrs by MTT assay. The class given is cell-based. Particulars: keratinocyte. For orientation: Formazan colour is commonly taken as a measure of viable cells.
A short description of data set [6]: Cytotoxicity against normal human epidermal keratinocytes at 5 uM after 72 hrs by MTT assay. The format is cell-based. Particulars: keratinocyte.
The target of data set [7] is Proteinase-activated receptor 2 (Homo sapiens) (UniProt P55085). In words: Inhibition of PAR2-mediated SLIGKV-NH2-induced interleukin-8 production in normal human epidermal keratinocytes at 5 uM after 24 hrs by ELISA.
Data set [8] shares this target. The experiment in a line: Inhibition of PAR2-mediated SLIGKV-NH2-induced interleukin-8 production in normal human epidermal keratinocytes at 10 uM after 24 hrs by ELISA.

Each structure is given as a SMILES string. The source made the active and inactive calls. The rule behind the calls is not given here.

Chain of Proteinase-activated receptor 2 (Homo sapiens) (P55085 whole entry): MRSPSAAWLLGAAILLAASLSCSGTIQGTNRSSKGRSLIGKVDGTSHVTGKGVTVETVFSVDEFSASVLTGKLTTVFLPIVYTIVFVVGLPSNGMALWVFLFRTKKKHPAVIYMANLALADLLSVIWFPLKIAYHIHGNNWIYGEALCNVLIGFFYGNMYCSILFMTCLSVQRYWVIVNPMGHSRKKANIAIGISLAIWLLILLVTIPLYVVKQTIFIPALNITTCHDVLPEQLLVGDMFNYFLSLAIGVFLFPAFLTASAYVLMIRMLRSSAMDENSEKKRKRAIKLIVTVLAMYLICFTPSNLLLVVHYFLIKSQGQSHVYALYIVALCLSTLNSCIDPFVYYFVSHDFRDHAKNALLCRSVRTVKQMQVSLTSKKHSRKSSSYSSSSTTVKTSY

Turning to `CC[C@H]1OC(=O)[C@H](C)[C@@H](O[C@H]2C[C@@](C)(OC)[C@@H](O)[C@H](C)O2)[C@H](C)[C@@H](O[C@@H]2O[C@H](C)C[C@H](N(C)C)[C@H]2O)[C@](C)(O)C[C@@H](C)/C(=N\OCOCCOC)[C@H](C)[C@@H](O)[C@]1(C)O`, the outcome in data set [1] was inactive.

For the compound `CC[C@H]1OC(=O)[C@H](C)[C@@H](O[C@H]2C[C@@](C)(OC)[C@@H](O)[C@H](C)O2)[C@H](C)[C@@H](O[C@@H]2O[C@H](C)C[C@H](N(C)C)[C@H]2O)[C@](C)(OC)C[C@@H](C)C(=O)[C@H](C)[C@@H](O)[C@]1(C)O`, the outcome in data set [1] was inactive.

In the case of `C[C@H]1c2cccc(O)c2C(=O)C2=C(O)[C@]3(O)C(=O)C(C(N)=O)=C(O)[C@@H](N(C)C)[C@@H]3[C@@H](O)[C@@H]21.O` [DOXYCYCLINE], the outcome in data set [1], in data set [3], in data set [7] and in data set [8] was Active. Besides, the values for the Activity entry in data set [2], in data set [5] and in data set [6] were “Toxic”, “Non-toxic” and “Non-toxic”, respectively. Moreover, in data set [4], the outcome was inactive.

On to `CN(C)c1ccc(O)c2c1C[C@H]1C[C@H]3[C@H](N(C)C)C(O)=C(C(N)=O)C(=O)[C@@]3(O)C(O)=C1C2=O` [MINOCYCLINE], for which the result in data set [1], in data set [3], in data set [7] and in data set [8] was Active. In addition, the figures for the Activity entry in data set [2], in data set [5] and in data set [6] were “Toxic”, “Non-toxic” and “Non-toxic”, respectively. Further, the result in data set [4] was inactive.

Consider `CN(C)[C@@H]1C(O)=C(C(N)=O)C(=O)[C@@]2(O)C(O)=C3C(=O)c4c(O)cccc4[C@@](C)(O)[C@H]3C[C@@H]12` [TETRACYCLINE], for which the result in data set [1], in data set [7] and in data set [8] was Active. The Activity result in data set [2] is recorded as “Toxic”; in data set [5] it was “Non-toxic”; in data set [6], “Non-toxic”. Further, the outcome in data set [3] and in data set [4] was inactive.

Values taken from ChEMBL document CHEMBL1649195, “Tetracyclines modulate protease-activated receptor 2-mediated proinflammatory reactions in epidermal keratinocytes” (Antimicrob Agents Chemother, 2009).
